The nature of one data set: physchem. As for the experimental part: The solubility data for each system tested in Table DD, was determined by the following method. First, a measured amount of dry crude mixture (39.3% clari, 37.5% 6,11, and 23.2% other impurities) was added to a measured volume of the mobile phase solvent being used for the particular test case and the mixture was stirred. Heat was added while the mixture was being stirred because dissolution of Clarithromycin and 6,11 is very slow at room temperature. The solution temperature was allowed to approach the boiling temperature of the solvent. The solution was held constant at that temperature until no more solid material was present in the mixture (complete dissolution). […]
In addition to the assembly of the physical system 500, the maximum feed concentration allowed by solubility must be known to optimize the operating parameters with the non-linear, non-equilibrium equations. The solubility was determined in the manner described earlier. Next, the optimal feed concentration was determined and was created by diluting the maximum feed concentration solution. […]
The feed solutions for Experiment #1 were prepared by mixing 5.6 g dry crude (39.3% clari, 37.5% 6,11, 23.2% other) Clarithromycin and 6,11 with 1000 ml of 80% methanol. […] Finally, this solution was filtered to remove any remaining solids and the volume measured to insure there was not significant evaporation. […]

Data set [1] can be described thus: Solubility in Ethanol/water solutions (excess solid stirred four hours, filtered, HPLC).
Protocol: The relative solubilities of Clarithromycin and 6,11 at various percentages of Ethanol in the Ethanol/water solution provide a solubility curve for both Clarithromycin and 6,11. The Ethanol used is 200 proof and is available from McCormick Distilling Co. in Weston, Mass. The water used is distilled deionized water obtained from a MILLI-Q™ system available from Millipore located in Bedford, Mass. The solubilities of Clarithromycin and 6,11 are determined by adding an excess amount of the component being tested to the tested Ethanol/water solution and stirring the mixture for four hours at approximately room temperature (24 C.). The resultant solution is then filtered and assayed for concentration using HPLC (high performance liquid chromatography).
Clarithromycin solubility curve 90 was found using pure Clarithromycin. 6,11 solubility curve 92 was found using a binary mixture of Clarithromycin and 6,11.

Values after ≈ are worked out from the molar mass of the structure shown.

The solubility is the dissolved amount per volume that the medium holds. For the molecule `CC[C@H]1OC(=O)[C@H](C)[C@@H](O[C@H]2C[C@@](C)(OC)[C@@H](O)[C@H](C)O2)[C@H](C)[C@@H](O[C@@H]2O[C@H](C)C[C@H](N(C)C)[C@H]2O)[C@](C)(OC)C[C@@H](C)C(=O)[C@H](C)[C@@H](O)[C@]1(C)O` [Clarithromycin, 6-O-methyl erythromycin A], the solubility was 2460 µg/mL (≈ 3.29 mM) in the data set “physchem” (24 °C, organic solvent or mixture, thermodynamic from solid, solubility limit); “very small” in data set [1] (Ethanol percentages below about 60%); “higher degree of solubility than 6,11” in data set [1] (various Ethanol/water solutions, approximately room temperature (24 C.), FIG. 8). Further, in data set [1] (approximately room temperature (24 C.), FIG. 8), the “Ethanol content of the Ethanol/water solution at maximum solubility” value was “about 80 % Ethanol”.
`CC[C@H]1OC(=O)[C@H](C)[C@@H](O[C@H]2C[C@@](C)(OC)[C@@H](O)[C@H](C)O2)[C@H](C)[C@@H](O[C@@H]2O[C@H](C)C[C@H](N(C)C)[C@H]2O)[C@](C)(OC)C[C@@H](C)C(=O)[C@H](C)[C@@H](OC)[C@]1(C)O` [6,11, 6,11-O-methyl erythromycin A] came in with a solubility limit in the data set “physchem” of 3030 µg/mL (≈ 3.98 mM).
